Data published in patent US20240158446A1, “CYCLIC COMPOUND HAVING SELECTIVE INHIBITORY ACTION ON KRAS OVER HRAS AND NRAS” (CHUGAI SEIYAKU KABUSHIKI KAISHA, priority 2021, published 2024).
Read-outs that look alike come from different tables or passages of the source. Where a SMILES comes first, the peptide text is derived from it. Bridges are numbered along the chain shown (N, C = ends). [ ]: non-standard residue; d: D form. The star is where a group is joined. hPhe(3-Cl-4-CF3) = N[C@@H](CCc1ccc(C(F)(F)F)c(Cl)c1)C(=O)O; NPrPhe(4-Me) = CCCN[C@@H](Cc1ccc(C)cc1)C(=O)O; NMeGly(cPent) = CN[C@H](C(=O)O)C1CCCC1; NMeD = CN[C@@H](CC(=O)O)C(=O)O; NMeL = CN[C@@H](CC(C)C)C(=O)O; Morpholide = C1CN(*)CCO1; Ac5c = NC1(C(=O)O)CCCC1; Aze = O=C(O)[C@@H]1CCN1; Sar = CNCC(=O)O

What was measured:
[1] = tested on: human lung cancer strain NCI-H441;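 further: cell proliferation inhibition after four days measured by CellTiter-Glo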
[2] = biological target: GDP-bound KRAS wild-type protein (Homo sapiens, UniProt P01116); test: Binding to KRAS by surface plasmon resonance (SPR), Single Cycle Kinetics
[3] = biological target: GDP-bound NRAS wild-type protein (Homo sapiens, UniProt P01111); test: Binding to NRAS by surface plasmon resonance (SPR), Single Cycle Kinetics; conditions: for NRAS/KRAS (ratio of KD value for NRAS to KD value for KRAS): GDP-bound NRAS wild-type protein vs GDP-bound KRAS wild-type protein; for NRAS/KRAS (ratio of KD value with respect to GDP-bound NRAS wild-type protein to KD value with respect to KRAS): SPR KD ratio NRAS/KRAS, class symbols
[4] = biological target: GDP-bound HRAS wild-type protein (Homo sapiens, UniProt P01112); test: Binding to HRAS by surface plasmon resonance (SPR), Single Cycle Kinetics; conditions: for HRAS/KRAS (ratio of KD value for HRAS to KD value for KRAS) / ratio of the KD value with respect to GDP-bound HRAS wild-type protein to the KD value with respect to KRAS: SPR; for HRAS/KRAS (ratio of KD value for HRAS to KD value for KRAS): GDP-bound HRAS wild-type protein vs GDP-bound KRAS wild-type protein; for HRAS/KRAS (ratio of KD value with respect to GDP-bound HRAS wild-type protein to KD value with respect to KRAS): SPR KD ratio HRAS/KRAS, class symbols
[5] = SPR, Single Cycle Kinetics, GDP-bound KRAS wild-type protein, read-out: KRAS KD
[6] = SPR Single Cycle Kinetics, GDP-bound KRAS wild-type protein, 1:1 binding model, read-out: KRAS KD
[7] = read-out: NCI-H441 cell proliferation inhibitory activity, 50% proliferation inhibitory concentration (IC50 value), NCI-H441, four days, CellTiter-Glo
[8] = SPR, Single Cycle Kinetics, 1:1 binding model, read-out: KD value with respect to GDP-bound KRAS wild-type protein

Sequence of GDP-bound HRAS wild-type protein (P01112 whole entry): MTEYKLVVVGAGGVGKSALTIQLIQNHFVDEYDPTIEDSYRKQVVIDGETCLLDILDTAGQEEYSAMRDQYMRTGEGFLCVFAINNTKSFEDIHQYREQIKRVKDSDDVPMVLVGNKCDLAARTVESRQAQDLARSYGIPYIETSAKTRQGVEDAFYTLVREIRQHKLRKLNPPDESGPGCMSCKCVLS
Sequence of GDP-bound KRAS wild-type protein (P01116 whole entry): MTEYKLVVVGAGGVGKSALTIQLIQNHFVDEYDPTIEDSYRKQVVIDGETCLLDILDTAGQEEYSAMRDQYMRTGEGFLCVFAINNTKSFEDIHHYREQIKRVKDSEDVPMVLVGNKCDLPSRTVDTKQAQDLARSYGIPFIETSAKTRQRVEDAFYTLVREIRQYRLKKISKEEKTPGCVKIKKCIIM
Sequence of GDP-bound NRAS wild-type protein (P01111 whole entry): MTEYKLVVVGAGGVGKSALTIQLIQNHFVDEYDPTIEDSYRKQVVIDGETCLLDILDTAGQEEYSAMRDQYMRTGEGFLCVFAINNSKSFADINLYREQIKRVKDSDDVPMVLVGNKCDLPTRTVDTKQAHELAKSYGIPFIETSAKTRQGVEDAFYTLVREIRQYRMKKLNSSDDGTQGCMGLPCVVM

IC50 [1]	Kd [2, 5]	Kd [2, 6]	SMILES	HRAS/KRAS (ratio of KD value for HRAS to KD value for KRAS) [4]	HRAS/KRAS (ratio of KD value with respect to GDP-bound HRAS wild-type protein to KD value with respect to KRAS) [4]	also measured
0.0421 µM			CC[C@H](C)[C@@H]1NC(=O)[C@H](CC(C)C)N(C)C(=O)C[C@@H](C(=O)N2CCOCC2)N(C)C(=O)[C@H](C2CCCC2)N(C)C(=O)C2(CCC2)NC(=O)[C@@H]2CCCN2C(=O)[C@H](CCc2ccc(C(F)(F)F)c(Cl)c2)NC(=O)CN(C)C(=O)[C@H](Cc2ccc(C(F)(F)F)cc2)N2C[C@H](C)CC[C@@H](C2=O)N(C)C(=O)[C@@H]2CCN2C1=O (stereo in doubt) [PP1339]			Kd ([2]; SPR, Single Cycle Kinetics, 1:1 binding model, GDP-bound KRAS wild-type protein, read-out: KRAS KD): 0.00065 µM; NRAS/KRAS (ratio of KD value for NRAS to KD value for KRAS) ([3]; SPR, KD ratio class): A (a compound having 10 or more and less than 20 is denoted as A); HRAS/KRAS (ratio of KD value for HRAS to KD value for KRAS) ([4]; KD ratio class): B (a compound having 3 or more and less than 10 is denoted as B)
0.0913 µM	0.0026 µM		CCC(CC)[C@H]1C(=O)N(C)[C@H](C(=O)N(C)C)CC(=O)N(C)[C@@H](COC)C(=O)N[C@@H]([C@@H](C)CC)C(=O)N(C2CC2)CC(=O)N(C)[C@H]2C/C=C\CCN(C2=O)[C@@H](Cc2ccc(C)cc2)C(=O)N(C)CC(=O)N[C@@H](CCc2ccc(Cl)c(Cl)c2)C(=O)N2C[C@H](OC(C)C)C[C@H]2C(=O)NC2(CC(C)(C)C2)C(=O)N1C (stereo in doubt) [PP2509]	A (a compound having 10 or more and less than 20 is denoted as A)		NRAS/KRAS (ratio of KD value for NRAS to KD value for KRAS) ([3]; SPR): AA (a compound having 20 or more is denoted as AA)
0.0305 µM		0.00028 µM	CCC[C@H]1C(=O)N[C@H]([C@@H](C)CC)C(=O)N2C[C@@H](OC)C[C@H]2C(=O)N(C)[C@H]2C/C=C\CCN(C2=O)[C@@H](Cc2ccc(C)cc2)C(=O)N(C)CC(=O)N[C@@H](CCc2ccc(C(F)(F)F)c(Cl)c2)C(=O)N2C[C@H](OCC)C[C@H]2C(=O)NC2(CCC2)C(=O)N(C)[C@@H](C2CCCC2)C(=O)N(C)[C@H](C(=O)N(C)C)CC(=O)N1C (stereo in doubt) [PP2552]		B (a compound having 3 or more and less than 10 is denoted as B)	NRAS/KRAS (ratio of KD value with respect to GDP-bound NRAS wild-type protein to KD value with respect to KRAS) [3]: A (a compound having 10 or more and less than 20 is denoted as A)
0.144 µM		0.0048 µM	CCOC[C@H]1C(=O)N[C@@H]([C@@H](C)CC)C(=O)N(C2CC2)CC(=O)N(C)[C@@H]2C/C=C\CCN(C2=O)[C@@H](Cc2ccc(C)cc2)C(=O)N(C)CC(=O)N[C@@H](CCc2ccc(C(F)(F)F)c(OC)c2)C(=O)N2C[C@H](OCC)C[C@@H]2C(=O)NC2(CC(C)(C)C2)C(=O)N(C)[C@H](CC2CCC2)C(=O)N(C)[C@H](C(=O)N(C)C)CC(=O)N1C (stereo in doubt) [PP2760]		B (a compound having 3 or more and less than 10 is denoted as B)	NRAS/KRAS (ratio of KD value with respect to GDP-bound NRAS wild-type protein to KD value with respect to KRAS) [3]: A (a compound having 10 or more and less than 20 is denoted as A)
0.0038 µM		0.00015 µM	CCCN1C(=O)[C@@H]2CCN2C(=O)[C@H](C)NC(=O)[C@H]([C@@H](C)CC)NC(=O)[C@H](CC(C)C)N(C)C(=O)C[C@@H](C(=O)N2CCOCC2)N(C)C(=O)[C@H](C2CCCC2)N(C)C(=O)C2(CCCC2)NC(=O)[C@@H]2CCCN2C(=O)[C@H](CCc2ccc(C(F)(F)F)c(Cl)c2)NC(=O)CN(C)C(=O)[C@@H]1Cc1ccc(C)cc1 [PP0071] ([NMeL]IA[Aze][NPrPhe(4-Me)][Sar][hPhe(3-Cl-4-CF3)]P[Ac5c][NMeGly(cPent)][NMeD]-Morpholide; lactam N-11)			
0.0241 µM	0.0004 µM		CCCCCC[C@H]1C(=O)N[C@@H]([C@@H](C)CC)C(=O)N(C)CC(=O)N(C)[C@H]2C/C=C\CCN(C2=O)[C@@H](Cc2ccc(C(F)(F)F)cc2)C(=O)N(C)CC(=O)N[C@@H](CCc2cc(F)c(C(F)(F)F)c(F)c2)C(=O)N2C[C@H](OCC)C[C@H]2C(=O)NC2(CCC2)C(=O)N(C)[C@@H](C(CC)CC)C(=O)N(C)[C@H](C(=O)N(C)C)CC(=O)N1C [PP1202]			
0.562 µM	0.0093 µM		CCC(CC)[C@H]1C(=O)N(C)[C@H](C(=O)N(C)C)CC(=O)N(C)[C@@H](COC)C(=O)N[C@@H]([C@@H](C)CC)C(=O)N(C2CC2)CC(=O)N(C)[C@H]2C/C=C\CCN(C2=O)[C@@H](CC2CCCCC2)C(=O)N(C)CC(=O)N[C@@H](CCc2ccc(Cl)c(Cl)c2)C(=O)N2C[C@H](OC(C)C)C[C@H]2C(=O)NC2(CC(C)(C)C2)C(=O)N1C [PP2517]	A (a compound having 10 or more and less than 20 is denoted as A)		
0.179 µM		0.0042 µM	CCC[C@H]1C(=O)N[C@@H](CC(C)C)C(=O)N(C2CC2)CC(=O)N(C)[C@H]2C/C=C\CCN(C2=O)[C@@H](Cc2ccc(C)cc2)C(=O)N(C)CC(=O)N[C@@H](CCc2ccc(C(F)(F)F)c(Cl)c2)C(=O)N2C[C@H](OCC)C[C@H]2C(=O)NC2(CCC2)C(=O)N(C)[C@@H](C2CCCC2)C(=O)N(C)[C@H](C(=O)N(C)C)CC(=O)N1C [PP2543]		B (a compound having 3 or more and less than 10 is denoted as B)	
	3 µM		CC[C@H](C)[C@@H]1NC(=O)[C@H](CC(C)C)N(C)C(=O)CSC[C@H](C(=O)N(C)C)N(C)C(=O)[C@H](C2CCCC2)N(C)C(=O)C2(CCCC2)NC(=O)[C@@H]2CCCN2C(=O)[C@H](CCc2cc(F)c(C(F)(F)F)c(F)c2)NC(=O)CN(C)C(=O)[C@H](Cc2ccc(C(F)(F)F)cc2)N2CC/C=C\C[C@@H](C2=O)N(C)C(=O)CN(C)C1=O [PP3109]			IC50 [1, 7]: 3.42 µM; Kd [2, 8]: 3 µM
			CCC[C@H]1C(=O)N[C@@H]([C@@H](C)CC)C(=O)N(C2CC2)CC(=O)N(C)[C@H]2C/C=C\CCN(C2=O)[C@@H](Cc2ccc(C)cc2)C(=O)N(C)CC(=O)N[C@@H](CCc2cc(F)c(C(F)(F)F)c(F)c2)C(=O)N2C[C@H](OCC)C[C@H]2C(=O)N(C)C2(CCC2)C(=O)N(C)[C@@H](C2CCCC2)C(=O)N(C)[C@H](C(=O)N2CCCCC2)CC(=O)N1C [PP3111, (2S,8S,12R,14S,20S,23S,27S,30S,36S,38Z)-20-cyclopentyl-32-cyclopropyl-8-[2-[3,5-difluoro-4-(trifluoromethyl)phenyl]ethyl]-12-ethoxy-4,16,19,22,26,35-hexamethyl-30-[(1S)-1-methylpropyl]-23-(piperidine-1-carbonyl)-27-propyl-2-(p-tolylmethyl)spiro[1,4,7,1016192226293235-undecazatricyclo[34.5.1.0^10,14]dotetracont-38-ene-17,1′-cyclobutane]-3,6,9,15,18,21,25,28,31,34,42-undecone]	A (a compound having 10 or more and less than 20 is denoted as A)		IC50 [1, 7]: 0.0178 µM; NRAS/KRAS (ratio of KD value for NRAS to KD value for KRAS) ([3]; SPR): A (a compound having 10 or more and less than 20 is denoted as A); ratio of the KD value with respect to GDP-bound NRAS wild-type protein to the KD value with respect to KRAS ([3]; SPR, KD(NRAS)/KD(KRAS)): A (a compound having 10 or more and less than 20 is denoted as A); ratio of the KD value with respect to GDP-bound HRAS wild-type protein to the KD value with respect to KRAS [4]: A (a compound having 10 or more and less than 20 is denoted as A)

SMILES	IC50 [1]	Kd [2, 5]	Kd [2, 6]	HRAS/KRAS (ratio of KD value for HRAS to KD value for KRAS) [4]	HRAS/KRAS (ratio of KD value with respect to GDP-bound HRAS wild-type protein to KD value with respect to KRAS) [4]	also measured
CC[C@H](C)[C@@H]1NC(=O)[C@H](COC)N(C)C(=O)C[C@@H](C(=O)N2CCCCC2)N(C)C(=O)[C@H](C2CCCC2)N(C)C(=O)C2(CC(C)(C)C2)NC(=O)[C@@H]2C[C@@H](OC(C)C)CN2C(=O)[C@H](CCc2cc(F)c(C(F)(F)F)c(F)c2)NC(=O)CN(C)C(=O)[C@H](Cc2ccc(C(F)(F)F)cc2)N2CC/C=C\C[C@@H](C2=O)N(C)C(=O)CN(C)C1=O [PP2663]	0.0112 µM		0.00024 µM		A (a compound having 10 or more and less than 20 is denoted as A)	
CCC[C@H]1C(=O)N[C@@H]([C@@H](C)CC)C(=O)N(C)CC(=O)N(C)[C@H]2C/C=C\CCN(C2=O)[C@@H](Cc2ccc(C(F)(F)F)cc2)C(=O)N(C)CC(=O)N[C@@H](CCc2ccc(C(F)(F)F)c(OC)c2)C(=O)N2C[C@H](OCC)C[C@H]2C(=O)N(C)C2(CCC2)C(=O)N(C)[C@@H](C2CCCC2)C(=O)N(C)[C@H](C(=O)N2CCCCC2)CC(=O)N1C [PP3103, (2S,8S,12R,14S,20S,23S,27S,30S,36S,38Z)-20-cyclopentyl-12-ethoxy-8-[2-[3-methoxy-4-(trifluoromethyl)phenyl]ethyl]-4,16,19,22,26,32,35-heptamethyl-30-[(1S)-1-methylpropyl]-23-(piperidine-1-carbonyl)-27-propyl-2-[[4-(trifluoromethyl)phenyl]methyl]spiro[1,4,7,10,16,19,22,26,29,32,35-undecazatricyclo[34.5.1.0^10,14]dotetracont-38-ene-17,1′-cyclobutane]-3,6,9,15,18,21,25,28,31,34,42-undecone]		0.00021 µM		A (a compound having 10 or more and less than 20 is denoted as A)		IC50 [1, 7]: 0.0215 µM; Kd [2, 8]: 0.00021 µM; ratio of the KD value with respect to GDP-bound HRAS wild-type protein to the KD value with respect to KRAS [4]: A (a compound having 10 or more and less than 20 is denoted as A)
